Assay [1] has as its system neuraminidase (NA) of variant influenza A (H3N2)v viruses. Type of assay: biochemical, influenza A (H3N2)v virus.
The test system of assay [2] is neuraminidase (NA) of influenza A (H1N1)pdm09 viruses. Type of assay: biochemical, influenza A (H1N1)pdm09 virus.
Assay [3] has as its system neuraminidase (NA) of influenza B viruses. Type of assay: biochemical, influenza B virus.

These results are taken from article PMC4186475 (Influenza and Other Respiratory Viruses, 2013).

The structures appear in SMILES notation.

Consider `CCOC(=O)C1=C[C@@H](OC(CC)CC)[C@H](NC(C)=O)[C@@H](N)C1` [Oseltamivir, Oseltamivir (carboxylate)], for which, in assay [1], the “fold change in IC50 of outliers” value is 5·30 (35) fold. In assay [2], the “Fold change in IC50 of test viruses, Approach #1” value was 319–1474 (8) fold; the “Fold change in IC50 of test viruses, Approach #2” value (shortened to “Fold change in IC50 … Approach #2”) was 182–1403 (8) fold; the “Fold change in IC50 of test viruses, Approach #3” value is 213–1637 (8) fold; the “fold change in IC50 of outliers” value was 38-27-294·72 (213–1637) fold. In addition, in assay [3], the “Fold change in IC50 … Approach #2” value is 5–8 (2) fold.
`CC(=O)N[C@H]1[C@H]([C@H](O)[C@H](O)CO)OC(C(=O)O)=C[C@@H]1N=C(N)N` [Zanamivir, zanamivir]: in assay [1], the “fold change in IC50 of outliers” value was 35·74 (70) fold. For the same compound, the “Fold change in IC50 … Approach #2” value in assay [3] was 7 (1) fold.
